The species named for one experiment is Oryctolagus cuniculus. Kind of experiment: Compound was evaluated for its concentration required to inhibit the rabbit liver F16BPase. The class given is functional.
In experiment [1] the target is T1, Fructose-1,6-bisphosphatase 1 (Sus scrofa, UniProt P00636).
T1 sequence (P00636 whole entry): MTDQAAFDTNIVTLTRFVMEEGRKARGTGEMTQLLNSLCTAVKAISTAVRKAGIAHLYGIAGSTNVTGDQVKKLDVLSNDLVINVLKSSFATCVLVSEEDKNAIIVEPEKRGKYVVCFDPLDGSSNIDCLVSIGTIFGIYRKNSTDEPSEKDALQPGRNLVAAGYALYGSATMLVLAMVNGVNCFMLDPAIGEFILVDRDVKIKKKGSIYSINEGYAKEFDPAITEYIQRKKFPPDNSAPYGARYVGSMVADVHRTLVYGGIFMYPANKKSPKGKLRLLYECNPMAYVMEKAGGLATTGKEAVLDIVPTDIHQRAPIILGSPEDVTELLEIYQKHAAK
Kind of experiment: Compound was evaluated for its concentration required to inhibit the porcine kidney F16BPase.

Experiment [2] addresses T2, Fructose-1,6-bisphosphatase 1 (Rattus norvegicus, UniProt P19112).
T2 sequence (P19112 whole entry): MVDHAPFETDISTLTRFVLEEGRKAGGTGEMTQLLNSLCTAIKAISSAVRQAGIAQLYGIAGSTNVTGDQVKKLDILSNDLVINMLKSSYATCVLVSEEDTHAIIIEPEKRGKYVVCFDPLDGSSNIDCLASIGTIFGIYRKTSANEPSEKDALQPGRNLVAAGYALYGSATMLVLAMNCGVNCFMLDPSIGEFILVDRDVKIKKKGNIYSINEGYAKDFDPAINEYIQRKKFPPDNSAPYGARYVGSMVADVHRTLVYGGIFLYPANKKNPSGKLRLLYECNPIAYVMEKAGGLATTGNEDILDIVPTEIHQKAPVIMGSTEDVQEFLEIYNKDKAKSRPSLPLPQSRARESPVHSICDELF
Kind of experiment: Compound was evaluated for its concentration required to inhibit the rat liver F16BPase.

Experiment [3] has as its target T3, Fructose-1,6-bisphosphatase 1 (Homo sapiens, UniProt P09467).
T3 sequence (P09467 whole entry): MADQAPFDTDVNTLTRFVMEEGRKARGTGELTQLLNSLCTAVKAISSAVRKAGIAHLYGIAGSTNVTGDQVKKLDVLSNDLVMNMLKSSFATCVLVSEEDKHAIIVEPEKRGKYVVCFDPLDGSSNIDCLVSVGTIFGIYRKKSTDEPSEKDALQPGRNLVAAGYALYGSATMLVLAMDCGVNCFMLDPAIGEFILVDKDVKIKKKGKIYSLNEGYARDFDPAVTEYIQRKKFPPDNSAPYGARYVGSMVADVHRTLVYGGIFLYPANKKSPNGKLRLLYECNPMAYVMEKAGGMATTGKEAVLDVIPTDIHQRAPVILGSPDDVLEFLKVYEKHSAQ
Kind of experiment: Concentration required to inhibit the human liver recombinant fructose-1,6-bisphosphatase.

In the case of `COc1cc2ncnc(Nc3cccc(Br)c3)c2cc1OC`, the IC50 (in the experiment listed under Oryctolagus cuniculus; in experiment [1]; in experiment [2]) was above 10 µM each time.

For the compound `CCOc1cc2ncnc(Nc3cccc(F)c3)c2cc1OCC`, the IC50 in experiment [3] came out at 9.2 µM.

On to `COc1cc2nc(C)nc(Nc3cccc(Br)c3)c2cc1OC`, for which the IC50 in experiment [3] was found to be 4.5 µM.

Take `COc1cc2ncnc(Nc3ccc(F)c(Cl)c3)c2cc1OC`: the IC50 was above 10 µM in the experiment listed under Oryctolagus cuniculus, 0.34 µM in experiment [1], above 10 µM in experiment [2] and 0.29 µM in experiment [3].

Turning to `CCOc1cc2ncnc(Nc3ccc(C)c(Cl)c3)c2cc1OCC`, in experiment [3], the IC50 was above 10 µM.

Take `O=C(O)c1ccc2c(Nc3cccc(Br)c3)ncnc2c1`: the IC50 in experiment [3] is above 10 µM.

For `CC(C)Oc1ccc2ncnc(Nc3cccc(Br)c3)c2c1`, the IC50 in experiment [3] was above 10 µM.

For `C#Cc1cccc(Nc2ncnc3cc(OC)c(OC)cc23)c1`, the IC50 in the experiment listed under Oryctolagus cuniculus is above 10 µM; in experiment [1], 1.6 µM; in experiment [2], above 10 µM; in experiment [3], 0.9 µM.

Take `CCOc1cc2nc(CN(CC)CC)nc(Nc3cccc(Br)c3)c2cc1OCC`: the IC50 in experiment [3] is above 10 µM.

With `CCOc1cc2nc(CN3CCOCC3)nc(Nc3cccc(Br)c3)c2cc1OCC`, the 50% inhibitory concentration (IC50) in experiment [3] is above 10 µM.

Take `CCOc1cc2ncnc(Nc3cccc(Br)c3)c2cc1OCC`: the IC50 was above 10 µM in the experiment listed under Oryctolagus cuniculus, above 10 µM in experiment [1], above 10 µM in experiment [2] and 1.7 µM in experiment [3].

For the compound `CCN(CC)c1nc(Nc2cccc(Br)c2)c2cc(OC)c(OC)cc2n1`, the IC50 in experiment [3] is above 10 µM.

For `CCOc1cc2nc(-c3ccccc3)nc(Nc3cccc(Br)c3)c2cc1OCC`, the IC50 in experiment [3] is above 10 µM.

Consider `CCOc1cc2nc(Cc3ccccc3)nc(Nc3cccc(Br)c3)c2cc1OCC`, for which the concentration for half-maximal inhibition (IC50) in experiment [3] is above 10 µM.

In the case of `C#Cc1cccc(Nc2ncnc3cc(OCC)c(OCC)cc23)c1`, the IC50 in experiment [3] is 2.4 µM.

As for `CCCCOc1ccc2ncnc(Nc3cccc(Br)c3)c2c1`, the IC50 in experiment [3] is above 10 µM.

Regarding `CCOc1cc2nc(CS(C)(=O)=O)nc(Nc3cccc(Br)c3)c2cc1OCC`, in experiment [3], the IC50 was above 10 µM.

On to `Nc1cc2c(Nc3cccc(Br)c3)ncnc2cc1Cl`, for which the IC50 in experiment [3] was determined as 11.9 µM.

For the compound `CCOc1cc2ncnc(Nc3ccc(Cl)c(Cl)c3)c2cc1OCC`, the IC50 in experiment [3] was above 10 µM.

For `CCOc1cc2ncnc(Nc3ccc(F)c(Cl)c3)c2cc1OCC`, the concentration for half-maximal inhibition (IC50) in the experiment filed under Oryctolagus cuniculus is above 10 µM; in experiment [1], 3.1 µM; in experiment [2], above 10 µM; in experiment [3] it was 0.53 µM.

For `Brc1cccc(Nc2ncnc3cc4ccccc4cc23)c1`, the IC50 in experiment [3] was determined as 7.5 µM.

For the compound `CCOc1cc2nc(CC(C)C)nc(Nc3cccc(Br)c3)c2cc1OCC`, the IC50 in experiment [3] was above 10 µM.

For the compound `COCCOc1cc2c(Nc3cccc(Br)c3)ncnc2cc1OC`, the half-inhibitory concentration (IC50) in experiment [3] is 5.5 µM.

As for `COCCOc1cc2ncnc(Nc3cccc(Br)c3)c2cc1OCCOC`, the IC50 in experiment [3] was above 10 µM.

Consider `CCOc1cc2ncnc(Nc3cccc(Cl)c3)c2cc1OCC`, for which the IC50 was above 10 µM in the experiment filed under Oryctolagus cuniculus, 3.9 µM in experiment [1], above 10 µM in experiment [2] and 1.6 µM in experiment [3].

On to `COc1cc2ncnc(Nc3cccc(Br)c3)c2cc1[N+](=O)[O-]`, for which the IC50 in experiment [3] is above 10 µM.

Turning to `CCOc1cc2ncnc(Nc3ccccc3)c2cc1OCC`, the IC50 in experiment [3] was above 10 µM.

As to `C#Cc1cc(Nc2ncnc3cc(OC)c(OC)cc23)ccc1F`, the IC50 in the experiment filed under Oryctolagus cuniculus is above 10 µM; in experiment [1], 0.77 µM; in experiment [2] it was above 10 µM; in experiment [3], 0.25 µM.

With `COCCOc1ccc2ncnc(Nc3cccc(Br)c3)c2c1`, the IC50 in experiment [3] is 2.9 µM.

As to `CCOc1cc2ncnc(Nc3cccc(I)c3)c2cc1OCC`, in experiment [3], the IC50 is 2.1 µM.

On to `Brc1cccc(Nc2ncnc3cc4nc[nH]c4cc23)c1`, for which the concentration for half-maximal inhibition (IC50) in experiment [3] worked out at 4 µM.

With `O=[N+]([O-])c1cc2c(Nc3cccc(Br)c3)ncnc2cc1Cl`, the IC50 in experiment [3] was above 10 µM.

With `CCOc1cc2ncnc(Nc3cccc(Br)c3)c2cc1[N+](=O)[O-]`, the IC50 in experiment [3] was determined as 3.6 µM.

As for `CCOc1cc2nc(CCl)nc(Nc3cccc(Br)c3)c2cc1OCC`, in experiment [3], the IC50 was above 10 µM.

In the case of `CCOc1cc2ncnc(Nc3cccc(C#N)c3)c2cc1OCC`, the IC50 in experiment [3] is above 10 µM.

For the compound `COc1cc2ncnc(Nc3cccc(Cl)c3)c2cc1OC` [TYRPHOSTIN AG-1478], the IC50 in the experiment filed under Oryctolagus cuniculus was above 10 µM; in experiment [1], above 10 µM; in experiment [2] it was above 10 µM; in experiment [3], 1.3 µM.

Source of the values: ChEMBL document CHEMBL1134043, “Allosteric inhibition of fructose-1,6-bisphosphatase by anilinoquinazolines” (Bioorg Med Chem Lett, 2001).
